target: T1, GSK-3β (amino acids 1-420) (Homo sapiens, UniProt P49841); test: Ki determination for the inhibition of GSK-3 (standard coupled enzyme system); type: biochemical; conditions: 20 μM ATP, 300 μM peptide, 20 nM GSK-3β, 30° C.; read-out: Ki (GSK-3 inhibitory activity)
T1 construct: hexa-histidine tag with thrombin cleavage site (N); made in house
Procedure: Reactions were carried out in a solution containing 100 mM HEPES (pH 7.5), 10 mM MgCl2, 25 mM NaCl, 300 μM NADH, 1 mM DTT and 1.5% DMSO. […] Reactions were carried out at 30° C. and 20 nM GSK-3β. Final concentrations of the components of the coupled enzyme system were 2.5 mM phosphoenolpyruvate, 300 μM NADH, 30 μg/ml pyruvate kinase and 10 μg/ml lactate dehydrogenase.
An assay stock buffer solution was prepared containing all of the reagents listed above with the exception of ATP and the test compound of interest. The assay stock buffer solution (175 μl) was incubated in a 96 well plate with 5 μl of the test compound of interest at final concentrations spanning 0.002 μM to 30 μM at 30° C. for 10 min. […] The reaction was initiated by the addition of 20 μl of ATP (final concentration 20 μM). Reaction rates were obtained using a Molecular Devices Spectramax plate reader (Sunnyvale, Calif.) over 10 min at 30° C. The Ki values were determined from the rate data as a function of inhibitor concentration.

T1 sequence (P49841 whole entry, the tested form may be a part): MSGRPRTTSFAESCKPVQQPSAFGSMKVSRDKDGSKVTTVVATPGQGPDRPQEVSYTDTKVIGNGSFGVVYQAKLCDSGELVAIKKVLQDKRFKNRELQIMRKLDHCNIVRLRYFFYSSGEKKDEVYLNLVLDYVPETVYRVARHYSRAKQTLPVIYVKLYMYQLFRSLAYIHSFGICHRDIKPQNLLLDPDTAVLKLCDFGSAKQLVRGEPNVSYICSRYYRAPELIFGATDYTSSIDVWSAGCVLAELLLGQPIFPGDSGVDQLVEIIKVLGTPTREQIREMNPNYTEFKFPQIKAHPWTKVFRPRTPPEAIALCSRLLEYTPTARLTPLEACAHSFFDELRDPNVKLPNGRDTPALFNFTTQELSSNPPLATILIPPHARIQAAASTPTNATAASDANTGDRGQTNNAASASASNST

Nc1n[nH]c2nnc(-c3ccccc3Cl)c(-c3ccccc3)c12 [Compound 14, 3-Amino-4-phenyl-5-(2-chloro-phenyl)-1H-pyrazolo[3,4-c]pyridazine] and Nc1n[nH]c2nnc(-c3ccccc3F)c(-c3ccccc3)c12 [Compound 15, 3-Amino-4-phenyl-5-(2-fluorophenyl)-1H-pyrazolo[3,4-c]pyridazine] cannot be ordered by Ki: less than 100 nM for the first, less than 100 nM for the second.

O=C(Nc1n[nH]c2nnc(-c3ccccc3)c(-c3ccccc3)c12)c1ccccc1 [Compound 10, N-(4,5-Diphenyl-1H-pyrazolo[3,4-c]pyridazin-3-yl)-benzamide] and CC(=O)Nc1n[nH]c2nnc(-c3ccccc3)c(-c3ccccc3)c12 [Compound 9, N-(4,5-Diphenyl-1H-pyrazolo[3,4-c]pyridazin-3-yl)-acetamide] fall in the same range of Ki: 100 to 10000 nM for the first, 100 to 10000 nM for the second.

Nc1n[nH]c2nncc(-c3ccccc3)c12 [Compound 32, 4-Phenyl-1H-pyrazolo[3,4-c]pyridazin-3-ylamine] and Cc1ccccc1-c1nnc2[nH]nc(N)c2c1-c1ccccc1 [Compound 12, 3-Amino-4-phenyl-5-(2-methyl-phenyl)-1H-pyrazolo[3,4-c]pyridazine] fall in the same range of Ki: 100 to 10000 nM for the first, 100 to 10000 nM for the second.

Going from Nc1n[nH]c2nnc(-c3ccc(F)cc3)c(-c3ccccc3)c12 [Compound 4, 3-Amino-4-phenyl-5-(4-fluorophenyl)-1H-pyrazolo[3,4-c]pyridazine] to Nc1n[nH]c2nnc(-c3ccccc3)c(-c3ccc(F)cc3)c12 [Compound 5, 3-Amino-4-(1-fluorophenyl)-5-phenyl-1H-pyrazolo[3,4-c]pyridazine], the Ki falls from greater than 10000 nM to less than 100 nM.

Compared with Nc1n[nH]c2nnc(-c3ccc(F)cc3)c(-c3ccc(F)cc3)c12 [Compound 3, 3-Amino-4,5-bis(4-fluorophenyl)-1H-pyrazolo[3,4-c]pyridazine], Cc1ccc(-c2nnc3[nH]nc(N)c3c2-c2ccccc2)cc1 [Compound 11, 3-Amino-4-phenyl-5-(4-methyl-phenyl)-1H-pyrazolo[3,4-c]pyridazine] is lower in Ki: 100 to 10000 nM for the first, less than 100 nM for the second. The second binds more tightly here.

Nc1n[nH]c2nnc(-c3ccccc3)c(-c3cccc(F)c3)c12 [Compound 6, 3-Amino-4(3-fluorophenyl)-5-phenyl-1H-pyrazolo[3,4-c]pyridazine] and Nc1n[nH]c2nnc(-c3cccc(F)c3)c(-c3ccccc3)c12 [Compound 8, 3-Amino-4-phenyl-5-(3-fluorophenyl)-1H-pyrazolo[3,4-c]pyridazine] cannot be ordered by Ki: less than 100 nM for the first, less than 100 nM for the second.

Cc1cccc(-c2nnc3[nH]nc(N)c3c2-c2ccccc2)c1 [Compound 13, 3-Amino-4-phenyl-5-(3-methyl-phenyl)-1H-pyrazolo[3,4-c]pyridazine] and Nc1n[nH]c2nnc(-c3ccc(Cl)cc3)c(-c3ccccc3)c12 [Compound 16, 3-Amino-4-phenyl-5-(4-chloro-phenyl)-1H-pyrazolo[3,4-c]pyridazine] fall in the same range of Ki: 100 to 10000 nM for the first, 100 to 10000 nM for the second.

Nc1n[nH]c2nnc(-c3ccncc3)c(-c3ccccc3)c12 [Compound 7, 3-Amino-4-phenyl-5-(4-pyridyl)-1H-pyrazolo[3,4-c]pyridazine] and Nc1n[nH]c2nnc(-c3ccccc3)c(-c3ccc(Cl)cc3)c12 [Compound 2, 3-Amino-4(4-chlorophenyl)-5-phenyl-1H-pyrazolo[3,4-c]pyridazine] cannot be ordered by Ki: greater than 10000 nM for the first, greater than 10000 nM for the second.

— patent publication US8318467B2, “Inhibitors of GSK-3 and crystal structures of GSK-3β protein and protein complexes” (Vertex Pharmaceuticals Incorporated, priority 2001, dated 2012)
